Reference: ChEMBL document CHEMBL5380861, “Design and Synthesis of Orexin 1 Receptor-Selective Agonists” (J Med Chem, 2023)

Legend:
[1] = target: T1, Orexin/Hypocretin receptor type 1 (Homo sapiens, UniProt O43613); assay: Agonist activity at OX1R (unknown origin)
T1 sequence (O43613 whole entry): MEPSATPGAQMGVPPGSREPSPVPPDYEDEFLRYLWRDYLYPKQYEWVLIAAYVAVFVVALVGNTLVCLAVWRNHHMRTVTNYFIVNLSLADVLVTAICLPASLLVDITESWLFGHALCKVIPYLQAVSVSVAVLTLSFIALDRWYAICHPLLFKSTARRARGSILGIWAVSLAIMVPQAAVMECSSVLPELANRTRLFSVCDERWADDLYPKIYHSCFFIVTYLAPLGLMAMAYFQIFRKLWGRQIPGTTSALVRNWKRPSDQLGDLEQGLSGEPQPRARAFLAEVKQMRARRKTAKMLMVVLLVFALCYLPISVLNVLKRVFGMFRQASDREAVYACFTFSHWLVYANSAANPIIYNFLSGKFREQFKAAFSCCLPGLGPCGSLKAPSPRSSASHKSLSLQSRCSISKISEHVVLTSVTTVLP

[2] = Drug concentration in mouse brain at 40 mg/kg, sc; format: ADME, organism-based; conditions: in vivo
[3] = Drug concentration in mouse plasma at 40 mg/kg, sc; format: ADME, organism-based; conditions: in vivo
[4] = Ratio of drug concentration in mouse brain to plasma at 40 mg/kg, sc
[5] = target: T2, Orexin/Hypocretin receptor type 1 (Mus musculus, UniProt P58307); assay: Agonist activity at mouse OX1R expressed in HEK293 cells by AP-TGFalpha reporter assay
T2 sequence (P58307 whole entry): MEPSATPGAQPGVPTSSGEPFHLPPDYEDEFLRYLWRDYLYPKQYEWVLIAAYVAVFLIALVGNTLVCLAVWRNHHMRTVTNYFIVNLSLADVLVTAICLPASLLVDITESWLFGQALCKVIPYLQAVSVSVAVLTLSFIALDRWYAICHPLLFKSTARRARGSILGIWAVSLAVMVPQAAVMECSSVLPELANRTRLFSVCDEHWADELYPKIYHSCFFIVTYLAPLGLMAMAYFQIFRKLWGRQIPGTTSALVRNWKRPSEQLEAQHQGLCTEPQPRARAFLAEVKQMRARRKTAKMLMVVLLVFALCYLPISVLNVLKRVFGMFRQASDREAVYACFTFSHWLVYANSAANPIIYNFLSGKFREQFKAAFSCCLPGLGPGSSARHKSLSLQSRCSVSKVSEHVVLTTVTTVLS

[6] = target: T3, Orexin receptor type 2 (Mus musculus, UniProt P58308); assay: Agonist activity at mouse OX2R expressed in HEK293 cells by AP-TGFalpha reporter assay
T3 sequence (P58308 whole entry): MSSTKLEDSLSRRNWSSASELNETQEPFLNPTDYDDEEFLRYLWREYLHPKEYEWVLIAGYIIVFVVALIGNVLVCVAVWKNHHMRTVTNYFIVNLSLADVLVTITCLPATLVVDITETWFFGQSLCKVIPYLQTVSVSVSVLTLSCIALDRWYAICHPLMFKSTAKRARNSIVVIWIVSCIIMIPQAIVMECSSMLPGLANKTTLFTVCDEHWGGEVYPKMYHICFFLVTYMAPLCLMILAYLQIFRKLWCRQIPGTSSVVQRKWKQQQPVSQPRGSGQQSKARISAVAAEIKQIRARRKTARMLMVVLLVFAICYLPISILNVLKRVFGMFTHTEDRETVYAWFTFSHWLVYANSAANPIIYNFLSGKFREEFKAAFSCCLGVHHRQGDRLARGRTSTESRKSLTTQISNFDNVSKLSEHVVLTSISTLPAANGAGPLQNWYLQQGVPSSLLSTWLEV

[7] = target: T1, Orexin/Hypocretin receptor type 1
Description: Agonist activity at human OX1R expressed in CHO-K1 cells assessed as increase in intracellular calcium

[8] = target: T4, Orexin receptor type 2 (Homo sapiens, UniProt O43614)
T4 sequence (O43614 whole entry): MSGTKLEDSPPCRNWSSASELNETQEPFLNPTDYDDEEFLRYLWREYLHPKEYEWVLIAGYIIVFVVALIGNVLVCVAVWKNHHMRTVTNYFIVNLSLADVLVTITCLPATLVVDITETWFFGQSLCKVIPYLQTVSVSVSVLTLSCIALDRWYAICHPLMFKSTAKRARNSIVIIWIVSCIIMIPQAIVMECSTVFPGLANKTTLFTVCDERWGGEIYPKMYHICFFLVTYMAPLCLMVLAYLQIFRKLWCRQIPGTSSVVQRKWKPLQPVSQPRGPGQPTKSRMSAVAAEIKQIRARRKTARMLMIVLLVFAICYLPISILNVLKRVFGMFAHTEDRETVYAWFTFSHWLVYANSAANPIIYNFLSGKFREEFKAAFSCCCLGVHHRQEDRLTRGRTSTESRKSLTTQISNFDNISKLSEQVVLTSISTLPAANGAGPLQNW
Description: Agonist activity at human OX2R expressed in CHO-K1 cells assessed as increase in intracellular calcium

| Structure (SMILES) | EC50 [7] | EC50 [8] | also measured |
| --- | --- | --- | --- |
| COc1ccc(-c2cccc(C(=O)N(C)C)c2)cc1S(=O)(=O)Nc1cccc(CCNC(=O)c2ccccc2-n2nccn2)c1 |  |  | EC50 [1]: 36000 nM |
| COc1cccc(CC(=O)N(C)[C@@H]2CCCc3ccc(NS(=O)(=O)c4cc(-c5cccc(C(=O)N(C)C)c5)ccc4OC)cc32)c1 |  |  | Ct [2]: 61.1 pmol/g; concentration [3]: 25 µM; Kp [4]: 0.002; EC50 [5]: 174 nM; EC50 [6]: 69 nM |
| COc1cccc(CC(=O)N(C)[C@H]2CCCc3ccc(NS(=O)(=O)c4cc(/C=C/C(=O)Nc5ccncc5)ccc4OC)cc32)c1 | 3590 nM |  |  |
| CCCCNC(=O)/C=C/c1ccc(OC)c(S(=O)(=O)Nc2ccc3c(c2)C(N(C)C(=O)Cc2cccc(OC)c2)CCC3)c1 (centres undefined) | 573 nM | > 10000 nM |  |
| COc1cccc(CC(=O)N(C)C2CCCc3ccc(NS(=O)(=O)c4cc(/C=C/C(N)=O)ccc4OC)cc32)c1 (centres undefined) | 581 nM |  |  |
| CNC(=O)/C=C/c1ccc(OC)c(S(=O)(=O)Nc2ccc3c(c2)C(N(C)C(=O)Cc2cccc(OC)c2)CCC3)c1 (centres undefined) | 501 nM | > 10000 nM |  |
| COc1cccc(CC(=O)N(C)C2CCCc3ccc(NS(=O)(=O)c4cc(/C=C/C(=O)NCCN(C)C)ccc4OC)cc32)c1 (centres undefined) | 271 nM | 2410 nM |  |
| COc1cccc(CC(=O)N(C)C2CCCc3ccc(NS(=O)(=O)c4cc(/C=C/C(=O)Nc5ccccn5)ccc4OC)cc32)c1 (centres undefined) | 201 nM | 955 nM |  |
| COc1cccc(CC(=O)N(C)C2CCCc3ccc(NS(=O)(=O)c4cc(CCC(=O)N(C)C)ccc4OC)cc32)c1 (centres undefined) | 1760 nM |  |  |
| COc1cccc(CC(=O)N(C)C2CCCc3ccc(NS(=O)(=O)c4cc(/C=C/C(=O)N(C)c5ccncc5)ccc4OC)cc32)c1 (centres undefined) | 187 nM | 275 nM |  |
| COc1cccc(CC(=O)N(C)C2CCCc3ccc(NS(=O)(=O)c4cc(-c5ccccc5)ccc4OC)cc32)c1 (centres undefined) | 5920 nM | 1290 nM |  |
| COc1cccc(CC(=O)N(C)C2CCCc3ccc(NS(=O)(=O)c4cc(/C=C/C(=O)Nc5cccnc5)ccc4OC)cc32)c1 (centres undefined) | 43.4 nM | 295 nM |  |
| COc1cccc(CC(=O)N(C)[C@@H]2CCCc3ccc(NS(=O)(=O)c4cc(/C=C/C(=O)Nc5ccncc5)ccc4OC)cc32)c1 | 747 nM |  | Ct [2]: 137 pmol/g; concentration [3]: 32 µM; EC50 [5]: 154 nM; EC50 [6]: 457 nM |
| COc1cccc(CC(=O)N(C)C2CCCc3ccc(NS(=O)(=O)c4cc(/C=C/C(=O)Nc5ccccc5)ccc4OC)cc32)c1 (centres undefined) | 472 nM | 3290 nM |  |
| COc1cccc(CC(=O)N(C)C2CCCc3ccc(NS(=O)(=O)c4cc(CCCC(=O)N(C)C)ccc4OC)cc32)c1 (centres undefined) |  | 1020 nM |  |
| COc1cccc(CC(=O)N(C)C2CCCc3ccc(NS(=O)(=O)c4cc(CC(=O)N(C)C)ccc4OC)cc32)c1 (centres undefined) | 1040 nM |  |  |
| COc1cccc(CC(=O)N(C)C2CCCc3ccc(NS(=O)(=O)c4cc(/C=C/C(=O)N(C)C)ccc4OC)cc32)c1 (centres undefined) | 1280 nM | > 10000 nM |  |
| COc1cccc(CC(=O)N(C)C2CCCc3ccc(NS(=O)(=O)c4cc(C(=O)N(C)C)ccc4OC)cc32)c1 (centres undefined) | 607 nM | 146 nM |  |
| COCCNC(=O)/C=C/c1ccc(OC)c(S(=O)(=O)Nc2ccc3c(c2)C(N(C)C(=O)Cc2cccc(OC)c2)CCC3)c1 (centres undefined) | 476 nM | > 10000 nM |  |
| COc1cccc(CC(=O)N(C)C2CCCc3ccc(NS(=O)(=O)c4cc(/C=C/C(=O)Nc5ccncc5)ccc4OC)cc32)c1 (racemic) | 15.3 nM |  |  |
